Laboratory results reported in publication PMC8401933 (Molecules, 2021).

Legend:
Test in all cases: KINOMEscan binding
Details in all cases: read-out: Percent Control
[1] = biological target: T1, PFPK5(P.falciparum) (Plasmodium falciparum, UniProt P61075)
T1 construct: purchased Eurofins DiscoverX KINOMEscan

[2] = biological target: T2, PIK3CA(E545K) (Homo sapiens, UniProt P42336, E545K)
T2 construct: purchased Eurofins DiscoverX KINOMEscan

[3] = biological target: T3, CDK8 (Homo sapiens, UniProt P49336)
T3 construct: purchased Eurofins DiscoverX KINOMEscan

[4] = biological target: T4, MAP3K4 (Homo sapiens, UniProt Q9Y6R4)
T4 construct: purchased Eurofins DiscoverX KINOMEscan

[5] = biological target: T5, HCK (Homo sapiens, UniProt P08631)
T5 construct: purchased Eurofins DiscoverX KINOMEscan

[6] = biological target: T6, LOK (Homo sapiens, UniProt O94804)
T6 construct: purchased Eurofins DiscoverX KINOMEscan

[7] = biological target: T7, NEK3 (Homo sapiens, UniProt P51956)
T7 construct: purchased Eurofins DiscoverX KINOMEscan

[8] = biological target: T8, PIK3CA(H1047Y) (Homo sapiens, UniProt P42336, H1047Y)
T8 construct: purchased Eurofins DiscoverX KINOMEscan

[9] = biological target: T9, PRKR (Homo sapiens, UniProt P19525)
T9 construct: purchased Eurofins DiscoverX KINOMEscan

[10] = biological target: T10, ABL1(H396P)-phosphorylated (Homo sapiens, UniProt P00519, H396P)
T10 construct: purchased Eurofins DiscoverX KINOMEscan

[11] = biological target: T11, PIP5K1A (Homo sapiens, UniProt Q99755)
T11 construct: purchased Eurofins DiscoverX KINOMEscan

[12] = biological target: T12, QSK (Homo sapiens, UniProt Q9Y2K2)
T12 construct: purchased Eurofins DiscoverX KINOMEscan

[13] = biological target: T13, YANK3 (Homo sapiens, UniProt Q86UX6)
T13 construct: purchased Eurofins DiscoverX KINOMEscan

[14] = biological target: T14, MST1 (Homo sapiens, UniProt Q13043)
T14 construct: purchased Eurofins DiscoverX KINOMEscan

[15] = biological target: T15, AAK1 (Homo sapiens, UniProt Q2M2I8)
T15 construct: purchased Eurofins DiscoverX KINOMEscan

[16] = biological target: T16, NLK (Homo sapiens, UniProt Q9UBE8)
T16 construct: purchased Eurofins DiscoverX KINOMEscan

[17] = biological target: T17, PIKFYVE (Homo sapiens, UniProt Q9Y2I7)
T17 construct: purchased Eurofins DiscoverX KINOMEscan

[18] = biological target: T18, BMPR1A (Homo sapiens, UniProt P36894)
T18 construct: purchased Eurofins DiscoverX KINOMEscan

[19] = biological target: T19, ERK1 (Homo sapiens, UniProt P27361)
T19 construct: purchased Eurofins DiscoverX KINOMEscan

[20] = biological target: T20, FLT3(D835V) (Homo sapiens, UniProt P36888, D835V)
T20 construct: purchased Eurofins DiscoverX KINOMEscan

[21] = biological target: T21, SGK (Homo sapiens, UniProt O00141)
T21 construct: purchased Eurofins DiscoverX KINOMEscan

[22] = biological target: T22, FER (Homo sapiens, UniProt P16591)
T22 construct: purchased Eurofins DiscoverX KINOMEscan

[23] = biological target: T23, ERK5 (Homo sapiens, UniProt Q13164)
T23 construct: purchased Eurofins DiscoverX KINOMEscan

[24] = biological target: T24, DAPK2 (Homo sapiens, UniProt Q9UIK4)
T24 construct: purchased Eurofins DiscoverX KINOMEscan

[25] = biological target: T25, LATS1 (Homo sapiens, UniProt O95835)
T25 construct: purchased Eurofins DiscoverX KINOMEscan

[26] = biological target: T26, CDKL2 (Homo sapiens, UniProt Q92772)
T26 construct: purchased Eurofins DiscoverX KINOMEscan

[27] = biological target: T27, GAK (Homo sapiens, UniProt O14976)
T27 construct: purchased Eurofins DiscoverX KINOMEscan

[28] = biological target: T28, KIT(V559D,T670I) (Homo sapiens, UniProt P10721, T670I/V559D)
T28 construct: purchased Eurofins DiscoverX KINOMEscan

[29] = biological target: T29, DRAK1 (Homo sapiens, UniProt Q9UEE5)
T29 construct: purchased Eurofins DiscoverX KINOMEscan

[30] = biological target: T30, DCAMKL1 (Homo sapiens, UniProt O15075)
T30 construct: purchased Eurofins DiscoverX KINOMEscan

[31] = biological target: T31, PRP4 (Homo sapiens, UniProt Q13523)
T31 construct: purchased Eurofins DiscoverX KINOMEscan
Experimental: This platform contains 468 recombinant human kinases (more than 80% coverage) in which 56 disease-relevant mutants are included. The recombinant DNA-tagged kinases were incubated with the probe ligands immobilized to a solid support, and then the level of the captured kinases on the solid support was measured using quantitative PCR.

[32] = biological target: T32, FLT3(R834Q) (Homo sapiens, UniProt P36888, R834Q)
T32 construct: purchased Eurofins DiscoverX KINOMEscan

[33] = biological target: T33, ZAP70 (Homo sapiens, UniProt P43403)
T33 construct: purchased Eurofins DiscoverX KINOMEscan

[34] = biological target: T34, VRK2 (Homo sapiens, UniProt Q86Y07)
T34 construct: purchased Eurofins DiscoverX KINOMEscan

[35] = biological target: T35, ERBB3 (Homo sapiens, UniProt P21860)
T35 construct: purchased Eurofins DiscoverX KINOMEscan

[36] = biological target: T36, EPHB2 (Homo sapiens, UniProt P29323)
T36 construct: purchased Eurofins DiscoverX KINOMEscan

[37] = biological target: T37, WNK3 (Homo sapiens, UniProt Q9BYP7)
T37 construct: purchased Eurofins DiscoverX KINOMEscan

[38] = biological target: T38, BRSK2 (Homo sapiens, UniProt Q8IWQ3)
T38 construct: purchased Eurofins DiscoverX KINOMEscan

[39] = biological target: T39, ABL1(H396P)-nonphosphorylated (Homo sapiens, UniProt P00519, H396P)
T39 construct: purchased Eurofins DiscoverX KINOMEscan

[40] = biological target: T40, KIT(D816H) (Homo sapiens, UniProt P10721, D816H)
T40 construct: purchased Eurofins DiscoverX KINOMEscan

[41] = biological target: T41, KIT(L576P) (Homo sapiens, UniProt P10721, L576P)
T41 construct: purchased Eurofins DiscoverX KINOMEscan

[42] = biological target: T42, ABL1-nonphosphorylated (Homo sapiens, UniProt P00519)
T42 construct: purchased Eurofins DiscoverX KINOMEscan

T14 sequence (Q13043 whole entry): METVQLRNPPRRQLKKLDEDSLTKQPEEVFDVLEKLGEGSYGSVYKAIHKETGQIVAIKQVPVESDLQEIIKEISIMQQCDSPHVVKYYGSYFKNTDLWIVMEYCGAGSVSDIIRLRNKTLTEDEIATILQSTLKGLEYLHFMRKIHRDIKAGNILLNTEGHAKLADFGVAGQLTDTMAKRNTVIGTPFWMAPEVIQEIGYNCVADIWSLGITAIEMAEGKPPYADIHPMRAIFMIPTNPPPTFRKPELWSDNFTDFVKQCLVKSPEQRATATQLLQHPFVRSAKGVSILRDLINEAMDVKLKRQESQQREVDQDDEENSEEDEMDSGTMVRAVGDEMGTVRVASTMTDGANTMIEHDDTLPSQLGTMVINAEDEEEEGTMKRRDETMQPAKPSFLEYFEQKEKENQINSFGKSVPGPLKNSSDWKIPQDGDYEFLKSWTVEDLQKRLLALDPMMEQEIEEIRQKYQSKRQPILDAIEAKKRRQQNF
T21 sequence (O00141 whole entry): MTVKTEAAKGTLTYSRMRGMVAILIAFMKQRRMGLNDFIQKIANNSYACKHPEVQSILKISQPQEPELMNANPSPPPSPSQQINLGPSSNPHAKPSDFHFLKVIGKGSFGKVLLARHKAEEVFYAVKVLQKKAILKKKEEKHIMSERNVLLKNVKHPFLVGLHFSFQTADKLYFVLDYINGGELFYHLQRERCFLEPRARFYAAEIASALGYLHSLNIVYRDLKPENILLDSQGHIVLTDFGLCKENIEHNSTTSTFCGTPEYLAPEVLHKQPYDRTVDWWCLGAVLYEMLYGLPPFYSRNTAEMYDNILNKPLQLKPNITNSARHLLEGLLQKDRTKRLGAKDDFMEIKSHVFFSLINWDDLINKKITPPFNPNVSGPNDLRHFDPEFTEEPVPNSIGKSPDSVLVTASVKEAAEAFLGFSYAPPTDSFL
T22 sequence (P16591 whole entry): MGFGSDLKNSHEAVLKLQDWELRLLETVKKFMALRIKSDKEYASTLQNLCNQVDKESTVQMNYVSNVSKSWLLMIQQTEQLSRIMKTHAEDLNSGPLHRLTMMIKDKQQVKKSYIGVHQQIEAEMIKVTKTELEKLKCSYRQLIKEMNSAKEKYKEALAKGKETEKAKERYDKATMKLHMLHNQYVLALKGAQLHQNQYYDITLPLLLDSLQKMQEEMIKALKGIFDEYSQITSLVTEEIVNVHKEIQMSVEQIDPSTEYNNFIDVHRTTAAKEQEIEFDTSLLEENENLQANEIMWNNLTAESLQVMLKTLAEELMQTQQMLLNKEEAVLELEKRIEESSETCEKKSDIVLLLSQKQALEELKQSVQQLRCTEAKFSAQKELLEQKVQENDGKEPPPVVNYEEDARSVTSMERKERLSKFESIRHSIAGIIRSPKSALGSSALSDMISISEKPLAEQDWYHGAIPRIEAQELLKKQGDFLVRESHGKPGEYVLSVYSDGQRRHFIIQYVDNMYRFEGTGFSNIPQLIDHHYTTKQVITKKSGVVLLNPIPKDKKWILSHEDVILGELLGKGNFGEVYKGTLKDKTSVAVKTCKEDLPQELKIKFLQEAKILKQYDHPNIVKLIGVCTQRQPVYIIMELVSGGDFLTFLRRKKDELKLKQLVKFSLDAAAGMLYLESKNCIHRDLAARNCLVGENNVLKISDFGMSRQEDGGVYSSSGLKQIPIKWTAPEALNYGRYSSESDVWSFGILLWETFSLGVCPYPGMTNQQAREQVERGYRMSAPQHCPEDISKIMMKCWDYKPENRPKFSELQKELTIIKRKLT
T5 sequence (P08631 whole entry): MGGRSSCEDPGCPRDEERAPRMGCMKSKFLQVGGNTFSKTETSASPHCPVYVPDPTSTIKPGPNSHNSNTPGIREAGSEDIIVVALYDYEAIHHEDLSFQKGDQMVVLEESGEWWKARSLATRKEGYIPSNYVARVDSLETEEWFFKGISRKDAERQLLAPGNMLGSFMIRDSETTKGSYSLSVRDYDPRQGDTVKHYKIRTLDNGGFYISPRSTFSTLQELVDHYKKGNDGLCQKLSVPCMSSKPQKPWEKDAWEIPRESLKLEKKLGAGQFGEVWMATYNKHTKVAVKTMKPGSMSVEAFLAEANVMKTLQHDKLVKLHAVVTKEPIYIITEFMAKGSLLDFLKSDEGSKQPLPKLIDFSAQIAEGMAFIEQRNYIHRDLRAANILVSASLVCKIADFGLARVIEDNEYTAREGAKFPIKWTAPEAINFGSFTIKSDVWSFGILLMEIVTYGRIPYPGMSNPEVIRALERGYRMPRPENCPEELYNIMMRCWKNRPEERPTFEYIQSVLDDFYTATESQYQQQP
T25 sequence (O95835 whole entry): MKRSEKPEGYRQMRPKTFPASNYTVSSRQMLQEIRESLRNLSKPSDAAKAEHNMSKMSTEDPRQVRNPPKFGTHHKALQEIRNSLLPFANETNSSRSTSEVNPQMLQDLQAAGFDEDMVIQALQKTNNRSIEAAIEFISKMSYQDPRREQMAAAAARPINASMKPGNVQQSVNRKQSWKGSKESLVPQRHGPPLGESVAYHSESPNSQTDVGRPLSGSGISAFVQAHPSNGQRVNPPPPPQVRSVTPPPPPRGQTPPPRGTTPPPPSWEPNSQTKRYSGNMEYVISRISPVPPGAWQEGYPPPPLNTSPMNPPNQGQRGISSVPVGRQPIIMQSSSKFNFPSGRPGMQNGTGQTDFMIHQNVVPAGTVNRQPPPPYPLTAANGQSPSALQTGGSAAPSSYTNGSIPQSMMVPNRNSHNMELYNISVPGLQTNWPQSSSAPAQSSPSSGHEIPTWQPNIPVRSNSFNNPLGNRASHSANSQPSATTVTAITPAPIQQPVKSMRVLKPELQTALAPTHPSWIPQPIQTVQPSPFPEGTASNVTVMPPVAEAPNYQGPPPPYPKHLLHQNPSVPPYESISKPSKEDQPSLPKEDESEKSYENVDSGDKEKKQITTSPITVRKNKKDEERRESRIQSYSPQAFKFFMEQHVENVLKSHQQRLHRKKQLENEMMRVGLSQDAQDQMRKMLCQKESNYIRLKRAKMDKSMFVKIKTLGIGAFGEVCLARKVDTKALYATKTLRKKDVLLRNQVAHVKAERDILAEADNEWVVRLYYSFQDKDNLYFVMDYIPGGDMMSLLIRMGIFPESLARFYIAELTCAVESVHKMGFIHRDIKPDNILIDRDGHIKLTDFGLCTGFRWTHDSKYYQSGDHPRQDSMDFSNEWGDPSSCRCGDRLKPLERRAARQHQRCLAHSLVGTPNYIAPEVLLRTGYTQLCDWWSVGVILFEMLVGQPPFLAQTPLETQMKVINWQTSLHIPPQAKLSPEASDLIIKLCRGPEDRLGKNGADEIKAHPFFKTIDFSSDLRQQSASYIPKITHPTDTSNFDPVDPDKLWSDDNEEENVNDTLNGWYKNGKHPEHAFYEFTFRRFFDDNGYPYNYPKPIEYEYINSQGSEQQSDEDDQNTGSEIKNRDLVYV
T7 sequence (P51956 whole entry): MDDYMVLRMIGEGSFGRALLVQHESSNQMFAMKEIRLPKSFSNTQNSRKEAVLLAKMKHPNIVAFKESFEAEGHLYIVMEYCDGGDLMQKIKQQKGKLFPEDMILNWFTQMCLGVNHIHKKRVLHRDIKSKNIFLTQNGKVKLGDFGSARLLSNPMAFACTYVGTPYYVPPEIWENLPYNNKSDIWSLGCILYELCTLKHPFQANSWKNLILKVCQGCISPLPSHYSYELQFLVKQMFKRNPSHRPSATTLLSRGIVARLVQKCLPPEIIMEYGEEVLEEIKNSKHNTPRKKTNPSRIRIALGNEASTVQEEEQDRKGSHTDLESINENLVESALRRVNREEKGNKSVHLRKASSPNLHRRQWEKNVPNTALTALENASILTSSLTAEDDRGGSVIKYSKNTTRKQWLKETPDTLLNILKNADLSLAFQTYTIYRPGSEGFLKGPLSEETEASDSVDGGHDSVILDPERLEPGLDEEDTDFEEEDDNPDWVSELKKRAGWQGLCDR
T41 sequence (P10721 26-976 L576P): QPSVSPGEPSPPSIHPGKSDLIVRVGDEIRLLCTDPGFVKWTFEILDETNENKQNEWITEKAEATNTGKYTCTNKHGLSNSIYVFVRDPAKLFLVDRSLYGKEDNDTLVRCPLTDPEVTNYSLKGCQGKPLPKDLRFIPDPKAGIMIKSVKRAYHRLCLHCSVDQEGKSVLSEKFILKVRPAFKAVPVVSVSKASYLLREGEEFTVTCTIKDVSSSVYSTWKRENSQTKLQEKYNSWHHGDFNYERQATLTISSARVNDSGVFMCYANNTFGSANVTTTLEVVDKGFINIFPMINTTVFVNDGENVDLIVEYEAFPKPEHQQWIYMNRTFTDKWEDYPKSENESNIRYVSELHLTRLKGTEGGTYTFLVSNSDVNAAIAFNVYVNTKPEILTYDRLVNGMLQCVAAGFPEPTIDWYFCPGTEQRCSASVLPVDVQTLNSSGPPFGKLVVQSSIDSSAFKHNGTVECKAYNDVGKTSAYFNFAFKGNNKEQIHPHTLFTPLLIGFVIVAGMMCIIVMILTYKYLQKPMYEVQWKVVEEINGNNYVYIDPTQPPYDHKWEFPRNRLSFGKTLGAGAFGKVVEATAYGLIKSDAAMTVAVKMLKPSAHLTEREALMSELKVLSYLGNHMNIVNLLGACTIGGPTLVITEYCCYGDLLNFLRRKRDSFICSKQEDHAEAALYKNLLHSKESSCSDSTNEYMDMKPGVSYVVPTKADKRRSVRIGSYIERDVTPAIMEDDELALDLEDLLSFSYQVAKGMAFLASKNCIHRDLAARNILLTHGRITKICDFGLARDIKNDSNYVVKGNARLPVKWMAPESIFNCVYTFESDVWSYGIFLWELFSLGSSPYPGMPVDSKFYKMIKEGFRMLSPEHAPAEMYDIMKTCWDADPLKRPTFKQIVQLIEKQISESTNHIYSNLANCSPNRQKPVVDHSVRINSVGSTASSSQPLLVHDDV
T40 sequence (P10721 26-976 D816H): as the sequence (P10721 26-976 L576P) above, with P551L, D791H counted along it
T28 sequence (P10721 26-976 V559D/T670I): as the sequence (P10721 26-976 L576P) above, with V534D, P551L, T645I counted along it

CC(C)NC(=O)COc1cccc(-c2nc(Nc3ccc4[nH]ncc4c3)c3ccccc3n2)c1 [KD025, 2-(3-(4-((1H-indazol-5-yl)amino)quinazolin-2-yl)phenoxy)-N-isopropylacetamide]
remaining binding at 10 µM [1]: 100% | remaining binding at 10 µM [2]: 94% | remaining binding at 10 µM [3]: 98% | remaining binding at 10 µM [4]: 83% | remaining binding at 10 µM [5]: 95% | remaining binding at 10 µM [6]: 9.8% | remaining binding at 10 µM [7]: 64% | remaining binding at 10 µM [8]: 87% | remaining binding at 10 µM [9]: 54% | remaining binding at 10 µM [10]: 82% | remaining binding at 10 µM [11]: 6% | remaining binding at 10 µM [12]: 88% | remaining binding at 10 µM [13]: 76% | remaining binding at 10 µM [14]: 82% | remaining binding at 10 µM [15]: 29% | remaining binding at 10 µM [16]: 80% | remaining binding at 10 µM [17]: 12% | remaining binding at 10 µM [18]: 89% | remaining binding at 10 µM [19]: 63% | remaining binding at 10 µM [20]: 23% | remaining binding at 10 µM [21]: 95% | remaining binding at 10 µM [22]: 75% | remaining binding at 10 µM [23]: 100% | remaining binding at 10 µM [24]: 100% | remaining binding at 10 µM [25]: 48% | remaining binding at 10 µM [26]: 100% | remaining binding at 10 µM [27]: 10% | remaining binding at 10 µM [28]: 98% | remaining binding at 10 µM [29]: 39% | remaining binding at 10 µM [30]: 79% | remaining binding at 10 µM [31]: 15% | remaining binding at 10 µM [32]: 69% | remaining binding at 10 µM [33]: 63% | remaining binding at 10 µM [34]: 71% | remaining binding at 10 µM [35]: 79% | remaining binding at 10 µM [36]: 96% | remaining binding at 10 µM [37]: 82% | remaining binding at 10 µM [38]: 95% | remaining binding at 10 µM [39]: 90% | remaining binding at 10 µM [40]: 81% | remaining binding at 10 µM [41]: 74% | remaining binding at 10 µM [42]: 78%
